Assay results reported in patent US12559489B2, “Antagonistic small molecule compound having toll-like receptor 7/9 inhibitory function” (AJOU UNIVERSITY INDUSTRY-ACADEMIC COOPERATION FOUNDATION, priority 2020, dated 2026).
Where two headings read alike, the source gives them in different places.

Columns and labels:
[1] = tested on: RAW264.7 cells; test: MTT cytotoxicity assay in RAW264.7 cells; type: cell-based, murine; settings: RAW264.7 cells, 1, 10 and 50 μM, 24 hours (FIG. 7A)
Protocol: (§1) RAW264.7 cells, which are murine macrophages (ATCC, Manassas, VA, USA), were incubated in low-glucose DMEM (Thermo Fisher Scientific Inc.) supplemented with 10% FBS, 100 IU/ml of penicillin and 100 μg/ml of streptomycin in an incubator. Imiquimod (IMQ; TLR7 agonist) and CpG-ODN (ODN 2395; TLR9 agonist) were obtained from InvivoGen (San Diego, CA, USA), and hydroxychloroquine (HCQ; endosomal TLRs inhibitor) was obtained from Sigma Aldrich Co. (St. Louis, MO, USA).
(§2) RAW264.7 cells were incubated along with 1, 10 or 50 μM of a compound. After 24 hours, MTT (3-(4,5-dimethylthiazol-2-yl)-2,5-diphenyltetrazolium bromide) assay and enzyme-linked immunosorbent assay (ELISA) were sequentially performed.

[2] = biological target: T1, TLR9 (Mus musculus, UniProt Q9EQU3); test: Inhibition of ODN 2395 (TLR9 agonist)-induced TNF-α secretion in RAW264.7 cells, ELISA; type: cell-based, murine; settings: for inhibition of secretion of TLR9-induced TNF-α: in the presence of ODN 2395, 1, 10 or 50 μM, ELISA (FIG. 7B and 7C)
T1 construct: host or cells: RAW264.7 murine macrophages
T1 sequence (Q9EQU3 26-1032): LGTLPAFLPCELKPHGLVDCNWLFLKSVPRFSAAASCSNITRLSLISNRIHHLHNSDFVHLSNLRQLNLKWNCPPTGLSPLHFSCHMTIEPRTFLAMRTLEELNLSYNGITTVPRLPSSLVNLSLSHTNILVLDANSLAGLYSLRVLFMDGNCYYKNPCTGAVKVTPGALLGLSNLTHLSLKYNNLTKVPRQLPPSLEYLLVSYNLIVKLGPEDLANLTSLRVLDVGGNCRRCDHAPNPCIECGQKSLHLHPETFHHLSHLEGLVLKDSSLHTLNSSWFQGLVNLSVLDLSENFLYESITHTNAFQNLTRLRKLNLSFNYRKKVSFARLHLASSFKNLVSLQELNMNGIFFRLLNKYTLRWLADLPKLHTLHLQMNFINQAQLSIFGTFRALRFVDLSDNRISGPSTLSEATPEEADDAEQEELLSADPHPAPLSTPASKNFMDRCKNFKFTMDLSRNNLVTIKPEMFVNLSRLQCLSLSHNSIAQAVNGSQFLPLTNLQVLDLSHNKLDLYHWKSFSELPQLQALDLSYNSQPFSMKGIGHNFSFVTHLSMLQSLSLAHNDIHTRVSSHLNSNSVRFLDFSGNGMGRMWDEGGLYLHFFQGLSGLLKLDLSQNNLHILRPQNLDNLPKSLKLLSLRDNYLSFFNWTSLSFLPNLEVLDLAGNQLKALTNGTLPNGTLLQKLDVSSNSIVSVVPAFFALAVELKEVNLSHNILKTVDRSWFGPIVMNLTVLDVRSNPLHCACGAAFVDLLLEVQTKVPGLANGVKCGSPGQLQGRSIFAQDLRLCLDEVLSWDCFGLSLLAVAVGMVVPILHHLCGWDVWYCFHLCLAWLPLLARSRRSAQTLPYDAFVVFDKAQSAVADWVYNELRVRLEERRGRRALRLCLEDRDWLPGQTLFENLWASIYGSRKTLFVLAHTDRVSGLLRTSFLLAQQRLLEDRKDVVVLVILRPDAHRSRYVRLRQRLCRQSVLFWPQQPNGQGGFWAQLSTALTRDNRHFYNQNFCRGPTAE
Protocol: as §1, §2
(§3) ODN 2395 was used as a ligand to activate TLR9 and IMQ was used to induce TLR7 activity. The inhibitory effects of TAC5-050 and TAC5-051 against TLR9 or TLR7 were determined. HCQ, which is known to inhibit endosomal TLRs, was used as a control group. Since the median inhibitory concentration was expected to range from 50 and 20 μM, the concentration range was set to decrease by half from the high concentration (50 μM) to the low concentration ([…]).
(§4) RAW264.7 cells (2×10^4 cells/well) were treated with small molecule compounds and HCQ for 1 hour (0.25% DMSO), incubated and then treated with ODN 2395 (0.5 μM) or IMQ (1 μg/ml) for 4 hours. Then, the ELISA for detecting mTNF-α was performed in accordance with the following protocol: • 1. Transfer samples from 96 well cell culture plate to elisa coated plate) and incubate for 2 h • 2. Treat detection antibody and incubate for 1 h • 3. Treat HRP and incubate for 30 min • 4. Treat TMB and read the samples by using micro-plate reader machine

[3] = biological target: T2, TLR7 (Mus musculus, UniProt P58681); test: Inhibition of IMQ (TLR7 agonist)-induced TNF-α secretion in RAW264.7 cells, ELISA; type: cell-based, murine; settings: for inhibition of secretion of TLR7-induced TNF-α: in the presence of IMQ, 1, 10 or 50 μM, ELISA (FIG. 7B and 7C)
T2 construct: host or cells: RAW264.7 murine macrophages
T2 sequence (P58681 27-1050): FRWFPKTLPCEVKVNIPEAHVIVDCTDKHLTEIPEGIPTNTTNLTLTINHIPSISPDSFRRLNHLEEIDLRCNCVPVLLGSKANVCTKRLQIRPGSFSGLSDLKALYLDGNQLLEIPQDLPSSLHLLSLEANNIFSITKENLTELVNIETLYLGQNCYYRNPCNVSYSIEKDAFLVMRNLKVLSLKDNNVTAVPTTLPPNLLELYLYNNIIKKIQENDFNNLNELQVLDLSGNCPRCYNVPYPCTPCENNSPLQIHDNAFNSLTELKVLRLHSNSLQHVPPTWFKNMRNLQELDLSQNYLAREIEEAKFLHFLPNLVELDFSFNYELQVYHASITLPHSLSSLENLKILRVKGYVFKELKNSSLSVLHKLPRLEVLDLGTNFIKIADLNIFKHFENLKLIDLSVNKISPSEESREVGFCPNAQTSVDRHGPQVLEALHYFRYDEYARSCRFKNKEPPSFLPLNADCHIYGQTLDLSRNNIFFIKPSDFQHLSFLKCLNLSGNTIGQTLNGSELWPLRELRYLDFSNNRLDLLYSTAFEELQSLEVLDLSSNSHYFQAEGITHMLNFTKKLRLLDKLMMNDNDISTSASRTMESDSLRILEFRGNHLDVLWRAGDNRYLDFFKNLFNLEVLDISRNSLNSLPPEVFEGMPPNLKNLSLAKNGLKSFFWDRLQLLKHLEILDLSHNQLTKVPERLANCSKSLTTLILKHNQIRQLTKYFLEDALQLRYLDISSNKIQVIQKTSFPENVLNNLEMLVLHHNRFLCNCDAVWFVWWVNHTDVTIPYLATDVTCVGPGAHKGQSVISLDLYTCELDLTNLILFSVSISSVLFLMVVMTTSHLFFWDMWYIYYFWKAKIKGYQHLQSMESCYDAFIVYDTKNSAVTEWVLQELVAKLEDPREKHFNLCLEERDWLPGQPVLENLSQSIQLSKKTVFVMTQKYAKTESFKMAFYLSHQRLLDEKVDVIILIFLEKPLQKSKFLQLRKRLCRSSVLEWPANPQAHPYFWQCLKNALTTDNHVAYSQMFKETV
Protocol: as §1, §2, §3, §4

[4] = Solubility noted during preparation; type: physicochemical; settings: remark in the preparation example, no medium stated
Protocol: 0.5 g (4.2 mmol) of […] was dissolved in 50 ml of MC, and 2.8 g (21 mmol, 5 eq) of AlCl3 was added thereto, followed by stirring at room temperature for 1 hour. A solution of 2.28 g (12.3 mmol) of p-nitrobenzoyl chloride in 10 ml of MC was added dropwise to the reaction solution at room temperature. The mixture was stirred overnight. When the reaction was completed, the reactor containing the concentrated residue was placed in an ice bath, 30 g of ice water was added thereto, and then stirred for 1 hour. Then, the result was filtered and washed with water. The solid was dissolved in 30 mL of MC and 10 mL of MeOH, and washed with 30 mL of Sat'd NaHCO3, and the layers were separated. The MC layer was washed with water, and the organic layer was dried over MgSO4, filtered, and concentrated under reduced pressure. After refluxing in 20 ml of IPA, the result was stirred at room temperature for 1 hour and then filtered. The solid was refluxed in 20 ml of MC, stirred at room temperature for 1 hour, and filtered to prepare 85 mg of (3-nitro-phenyl)-(1H-pyrrolo[2,3-b]pyridin-3-yl)-methanone (yield: 7.5%). However, it was not easy to remove impurities, so the yield was low and solubility was also low.

| SMILES | cytotoxicity (MTT assay) [1] | inhibition of secretion of TLR9-induced TNF-α ([2]; RAW264.7 cells) | inhibition of secretion of TLR7-induced TNF-α ([3]; RAW264.7 cells) | other results |
| --- | --- | --- | --- | --- |
| O=C(c1ccccc1)c1cn(S(=O)(=O)c2ccccc2)c2ncccc12 [TAC5-051, (1-Benzenesulfonyl-1H-pyrrolo[2,3-b]pyridin-3-yl)-phenyl-methanone] | non-cytotoxic | inhibited the secretion of TLR7- or TLR9-induced TNF-α in a dose-dependent manner | inhibited the secretion of TLR7- or TLR9-induced TNF-α in a dose-dependent manner | IC50 ([2]; RAW264.7 cells, compound 1 hour, then ODN 2395 (0.5 μM) 4 hours, mTNF-α ELISA (FIG. 8), read-out: IC50 for TLR9): 13.8 µM; IC50 ([3]; RAW264.7 cells, compound 1 hour, then IMQ (1 μg/ml) 4 hours, mTNF-α ELISA (FIG. 9), read-out: IC50 for TLR7): 10.8 µM |
| O=C(c1ccccc1)c1c[nH]c2ncc(Cl)cc12 [TAC5-055, (5-Chloro-1H-pyrrolo[2,3-b]pyridin-3-yl)-phenyl-methanone] | cytotoxic |  |  |  |
| O=C(c1ccc(Cl)c(F)c1)c1c[nH]c2ncccc12 [TAC5-054, (4-Chloro-3-fluoro-phenyl)-(1H-pyrrolo[2,3-b]pyridin-3-yl)-methanone] | cytotoxic |  |  |  |
| O=C(c1cccc([N+](=O)[O-])c1)c1c[nH]c2ncccc12 [TAC5-052, (3-Nitro-phenyl)-(1H-pyrrolo[2,3-b]pyridin-3-yl)-methanone] | cytotoxic |  |  | solubility [4]: low |
| O=C(c1ccc(Cl)c(Cl)c1)c1c[nH]c2ncccc12 [TAC5-053, (3,4-Dichloro-phenyl)-(1H-pyrrolo[2,3-b]pyridin-3-yl)-methanone] | cytotoxic |  |  |  |
| CC(C)n1cc(C(=O)c2ccccc2)c2cccnc21 [TAC5-050, (1-Isopropyl-1H-pyrrolo[2,3-b]pyridin-3-yl)-phenyl-methanone] | non-cytotoxic | inhibited the secretion of TLR7- or TLR9-induced TNF-α in a dose-dependent manner | inhibited the secretion of TLR7- or TLR9-induced TNF-α in a dose-dependent manner | IC50 [2]: 53.1 µM; IC50 [3]: 24 µM |
